Assay results: PMC10485003, “Antibiotic hyper-resistance in a class I aminoacyl-tRNA synthetase with altered active site signature motif” (Nature Communications, 2023)

How the values were obtained:
Assay in all cases: Activation step kinetics of reciprocal-residue mutants, mupirocin inhibition
Assay type in all cases: biochemical, Priestia (Bacillus) megaterium
Details in all cases: peer review response Table 1, read-out: Ki (Mup)
P53A/G60N/R61K PmIleRS2 = target: T1, P53A/G60N/R61K PmIleRS2 (Priestia megaterium, UniProt A0A0B6AVD3, G60N/P53A/R61K)
T1 sequence (A0A0B6AVD3 1-1032 P53A/G60N/R61K): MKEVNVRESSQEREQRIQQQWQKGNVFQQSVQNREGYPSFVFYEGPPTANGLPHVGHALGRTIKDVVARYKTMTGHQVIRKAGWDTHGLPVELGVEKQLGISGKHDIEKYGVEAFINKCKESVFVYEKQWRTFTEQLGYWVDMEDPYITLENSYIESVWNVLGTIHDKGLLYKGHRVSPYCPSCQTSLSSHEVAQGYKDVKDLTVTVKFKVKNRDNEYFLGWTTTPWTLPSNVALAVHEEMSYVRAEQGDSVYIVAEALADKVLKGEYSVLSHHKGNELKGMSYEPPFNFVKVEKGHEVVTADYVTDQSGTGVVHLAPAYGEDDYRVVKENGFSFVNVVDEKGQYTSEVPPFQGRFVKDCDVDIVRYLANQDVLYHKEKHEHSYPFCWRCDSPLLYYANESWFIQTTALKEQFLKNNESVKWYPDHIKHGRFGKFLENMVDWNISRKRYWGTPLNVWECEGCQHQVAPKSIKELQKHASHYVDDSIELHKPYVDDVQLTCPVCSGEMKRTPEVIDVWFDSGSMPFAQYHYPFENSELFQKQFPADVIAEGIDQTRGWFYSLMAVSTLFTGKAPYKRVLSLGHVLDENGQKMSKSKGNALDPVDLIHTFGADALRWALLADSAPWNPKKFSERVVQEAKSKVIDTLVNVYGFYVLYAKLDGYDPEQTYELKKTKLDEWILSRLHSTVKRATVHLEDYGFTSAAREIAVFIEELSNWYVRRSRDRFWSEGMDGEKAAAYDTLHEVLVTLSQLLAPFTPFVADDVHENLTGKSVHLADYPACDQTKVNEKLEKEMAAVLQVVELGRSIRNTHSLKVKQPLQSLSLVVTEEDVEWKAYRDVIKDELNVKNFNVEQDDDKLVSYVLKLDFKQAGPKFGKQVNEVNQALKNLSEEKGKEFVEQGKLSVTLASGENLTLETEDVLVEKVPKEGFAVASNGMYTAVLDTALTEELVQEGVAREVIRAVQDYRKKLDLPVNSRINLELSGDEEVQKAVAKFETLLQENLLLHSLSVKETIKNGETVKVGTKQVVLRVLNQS
Method: (§1) L-Ile and ATP concentrations ranged from 1/10 KM to 10 KM values. When measuring the KI towards one of the substrates, the other was held in saturation (concentrations at least 10 KM). The aliquots of the reaction mixture (1–2.5 μl) were quenched in 2 volumes of 500 mM NaOAc pH = 4.5, 0.1% SDS, and formed ^32P-ATP was separated from the remaining ^32P-PPi by thin-layer chromatography on Polygram CEL 300 PEI UV254 TLC plates (Macherey-Nagel, cat: 801063) using 750 mM KH2PO4 pH=3.5, 4 M urea buffer. Visualization and quantification of the signals was performed using a Typhoon Phosphoimager 5 (General Electric) and accompanying ImageQuant™ TL software (SV: 10.2). The kinetic constants were determined using a global fit option of the competitive inhibition model of GraphPad Prism 6 software (SV: 6.01). All experiments were performed in triplicates. The kcat was determined by dividing the maximal velocity, VM, with the used enzyme concentration. […]
(§2) same catalytic mechanisms. Further, mutation of the natural ALHH motif of DrIleRS2 to ALGH led to the loss of activity, showing that IleRS2 enzymes also require the 1st/3rd His for the activity (i.e. implying the same reaction mechanisms).
(§3) To address this point, we changed the sentence “This allows accommodation of the 3rd His in mut-GVHH-PmIleRS2 in a productive manner without a clash with the adenine […]
(§4) This allows accommodation of the 3 rd His in mut-GVHH-PmIleRS2 without displacement of the adenine moiety. This way, the 3rd His can take over the role of the 1 st His in the canonical reaction mechanism (Fig. 4B). (Page 9, lines 216-218)
(§5) We agree with the reviewer that the active sites of IleRS1 and IleRS2 differ in structural features allowing rearrangement of the α1-helix solely in IleRS2. We were eager t o understand the basis of it and mutated several conserved positions, within and around helix 1, in IleRS1 by introducing the analogous residues found in IleRS2. The same was done for IleRS2. […]
(§6) Table 1. Catalytic activity of the IleRS1 and IleRS2 mutants with exchanged reciprocal residues measured in the activation step […]

[1] = target: T2, P53A/G60N/R61K/W130Q/Y126S PmIleRS2 (Priestia megaterium, UniProt A0A0B6AVD3, G60N/P53A/R61K/W130Q/Y126S)
T2 sequence (A0A0B6AVD3 1-1032 P53A/G60N/R61K/Y126S/W130Q): T1 sequence (A0A0B6AVD3 1-1032 P53A/G60N/R61K)
Method: as §1, §2, §3, §4, §5, §6

W130Q/Y126S PmIleRS2 = target: T3, W130Q/Y126S PmIleRS2 (Priestia megaterium, UniProt A0A0B6AVD3, W130Q/Y126S)
T3 sequence (A0A0B6AVD3 1-1032 Y126S/W130Q): T1 sequence (A0A0B6AVD3 1-1032 P53A/G60N/R61K)
Method: as §1, §2, §3, §4, §5, §6

## C/C(=C\C(=O)OCCCCCCCCC(=O)O)C[C@@H]1OC[C@H](C[C@@H]2O[C@H]2[C@@H](C)[C@H](C)O)[C@@H](O)[C@H]1O [mupirocin]
P53A/G60N/R61K PmIleRS2
  Ki: 3.1 ± 0.2 µM
[1]
  Ki: 21.1 ± 0.7 µM
W130Q/Y126S PmIleRS2
  Ki: 3.2 ± 0.1 µM
